Assay results published in paper PMC7979765, “trans-Translation inhibitors bind to a novel site on the ribosome and clear Neisseria gonorrhoeae in vivo” (Nature Communications, 2021).
Converted amounts (≈) assume the structure as drawn. “And” between values parts separate entries of the source, which are not always exact repeats. Equal entries are not always repeated.

How the values were obtained:
Neisseria gonorrhoeae = test: MIC, microbroth dilution, G77L medium; format: cell-based; details: replicates 1-3
[1] = Mammalian cell cytotoxicity (CC50); format: cell-based, human; details: human, HeLa cells (ATCC CCL-2)
Protocol: (§1) The half maximal cytotoxic concentration (CC50) of each compound against HeLa cells (ATCC CCL-2) was measured as previously described. […] The mean values for each biological replicate were averaged, and the CC50 was determined using a 4-parameter nonlinear curve fitting algorithm (GraphPad Prism). The average of the CC50s from two biological replicates was calculated and reported.

HeLa cells = test: Mammalian cell cytotoxicity (CC50); format: cell-based, human; details: for NORMALIZED DATA (Fraction DMSO Control) / […] (Fraction DMSO Control): HeLa, per replicate
Protocol: as §1

[2] = HeLa cytotoxicity, value per replicate

Work on `O=C(Nc1nnc(-c2ccc(F)cc2)o1)N1CCc2ccccc2C1` [MBX-4132] yielded an MIC (Neisseria gonorrhoeae; strain ATCC 700825) of 0.042 µg/mL (≈ 0.124 µM), an MIC (Neisseria gonorrhoeae; strain BAA-1846) of 0.042 µg/mL (≈ 0.124 µM) and an MIC (Neisseria gonorrhoeae; strain CDC-0165) of 0.677 µg/mL (≈ 2 µM). The MIC (Neisseria gonorrhoeae; strain CDC-0166) was 0.169 µg/mL (≈ 0.499 µM), the MIC (Neisseria gonorrhoeae; strain CDC-0167) was 0.169 µg/mL and 0.085 µg/mL and the MIC (Neisseria gonorrhoeae; strain CDC-0169) was 0.169 µg/mL (≈ 0.499 µM). The MIC (Neisseria gonorrhoeae; strain CDC-0170) was 0.169 µg/mL (≈ 0.499 µM), the MIC (Neisseria gonorrhoeae; strain CDC-0171) was 0.169 µg/mL (≈ 0.499 µM) and the MIC (Neisseria gonorrhoeae; strain CDC-0172) was 0.169 µg/mL (≈ 0.499 µM). For the same compound, the MIC (Neisseria gonorrhoeae; strain CDC-0173) was 0.169 µg/mL (≈ 0.499 µM), the MIC (Neisseria gonorrhoeae; strain CDC-0174) was 0.169 µg/mL (≈ 0.499 µM) and the MIC (Neisseria gonorrhoeae; strain CDC-0175) was 0.085 µg/mL (≈ 0.251 µM). It also gave an MIC (Neisseria gonorrhoeae; strain CDC-0176) of 0.338 µg/mL (≈ 0.999 µM), an MIC (Neisseria gonorrhoeae; strain CDC-0177) of 0.169 µg/mL (≈ 0.499 µM) and an MIC (Neisseria gonorrhoeae; strain CDC-0178) of 0.338 µg/mL (≈ 0.999 µM). It also gave an MIC (Neisseria gonorrhoeae; strain CDC-0179) of 0.085 µg/mL (≈ 0.251 µM), an MIC (Neisseria gonorrhoeae; strain CDC-0180) of 0.169 µg/mL (≈ 0.499 µM) and an MIC (Neisseria gonorrhoeae; strain CDC-0181) of 0.169 µg/mL (≈ 0.499 µM). It also gave an MIC (Neisseria gonorrhoeae; strain CDC-0182) of 0.169 µg/mL (≈ 0.499 µM), an MIC (Neisseria gonorrhoeae; strain CDC-0183) of 0.338 µg/mL (≈ 0.999 µM) and an MIC (Neisseria gonorrhoeae; strain CDC-0184) of 0.169 µg/mL (≈ 0.499 µM). For the same compound, the MIC (Neisseria gonorrhoeae; strain CDC-0185) was 0.338 µg/mL and 0.169 µg/mL, the MIC (Neisseria gonorrhoeae; strain CDC-0186) was 0.169 µg/mL (≈ 0.499 µM) and the MIC (Neisseria gonorrhoeae; strain CDC-0187) was 0.338 µg/mL (≈ 0.999 µM). For the same compound, the MIC (Neisseria gonorrhoeae; strain CDC-0188) was 0.169 µg/mL (≈ 0.499 µM), the MIC (Neisseria gonorrhoeae; strain CDC-0189) was 0.085 µg/mL and 0.169 µg/mL and the MIC (Neisseria gonorrhoeae; strain CDC-0190) was 0.169 µg/mL (≈ 0.499 µM). For the same compound, the MIC (Neisseria gonorrhoeae; strain HO41) was 0.169 µg/mL (≈ 0.499 µM), the MIC (Neisseria gonorrhoeae; strain WHO F) was 0.066 µg/mL (≈ 0.195 µM) and the MIC (Neisseria gonorrhoeae; strain WHO G) was 0.132 µg/mL (≈ 0.39 µM). It also gave an MIC (Neisseria gonorrhoeae; strain WHO K) of 0.264 µg/mL (≈ 0.78 µM), an MIC (Neisseria gonorrhoeae; strain WHO L) of 0.264 µg/mL (≈ 0.78 µM) and an MIC (Neisseria gonorrhoeae; strain WHO M) of 0.132 µg/mL (≈ 0.39 µM). The MIC (Neisseria gonorrhoeae; strain WHO N) was 0.264 µg/mL (≈ 0.78 µM), the MIC (Neisseria gonorrhoeae; strain WHO O) was 0.132 µg/mL (≈ 0.39 µM) and the MIC (Neisseria gonorrhoeae; strain WHO P) was 0.529 µg/ml and 0.264 µg/ml (2×). The MIC (Neisseria gonorrhoeae; strain WHO U) was 0.132 µg/mL (≈ 0.39 µM), the MIC (Neisseria gonorrhoeae; strain WHO V) was 0.264 µg/mL (≈ 0.78 µM) and the MIC (Neisseria gonorrhoeae; strain WHO W) was 0.132 µg/mL (≈ 0.39 µM). For the same compound, the MIC (Neisseria gonorrhoeae; strain WHO X) was 0.264 µg/mL (≈ 0.78 µM), the MIC (Neisseria gonorrhoeae; strain WHO Y) was 0.132 µg/mL and 0.264 µg/mL and the MIC (Neisseria gonorrhoeae; strain WHO Z) was 0.264 µg/mL (≈ 0.78 µM). The CC50 [1, 2] was 22.2 µM, the CC50 ([1]; half-maximal cytotoxic concentration against HeLa cells) was 45 µM and the CC50 (HeLa cells; [2]) was 40.1 µM and 36.3 µM and 20.1 µM and 22.1 µM and 22.6 µM. For the same compound, the “NORMALIZED DATA (Fraction DMSO Control)” value (HeLa cells; [CMPD] 0.78125 µM) was 0.9968 Fraction DMSO Control and 1.046 Fraction DMSO Control and 1.033 Fraction DMSO Control and 0.9287 Fraction DMSO Control and 0.9308 Fraction DMSO Control and 0.9008 Fraction DMSO Control, the “NORMALIZED DATA (Fraction DMSO Control)” value (HeLa cells; [CMPD] 1.5625 µM) was 0.97 Fraction DMSO Control and 0.9994 Fraction DMSO Control and 0.9978 Fraction DMSO Control and 0.9354 Fraction DMSO Control and 0.9201 Fraction DMSO Control and 0.9227 Fraction DMSO Control and the “NORMALIZED DATA (Fraction DMSO Control)” value (HeLa cells; [CMPD] 3.125 µM) was 0.9272 Fraction DMSO Control and 0.9885 Fraction DMSO Control and 0.9744 Fraction DMSO Control and 0.9295 Fraction DMSO Control and 0.9174 Fraction DMSO Control and 0.8829 Fraction DMSO Control. The “NORMALIZED DATA (Fraction DMSO Control)” value (HeLa cells; [CMPD] 6.25 µM) was 0.9057 Fraction DMSO Control and 0.9944 Fraction DMSO Control and 0.9769 Fraction DMSO Control and 0.8719 Fraction DMSO Control and 0.9166 Fraction DMSO Control and 0.9146 Fraction DMSO Control, the “NORMALIZED DATA (Fraction DMSO Control)” value (HeLa cells; [CMPD] 12.5 µM) was 0.7347 Fraction DMSO Control and 0.9472 Fraction DMSO Control and 1.04 Fraction DMSO Control and 0.6999 Fraction DMSO Control and 0.7003 Fraction DMSO Control and 0.7354 Fraction DMSO Control and the “NORMALIZED DATA (Fraction DMSO Control)” value (HeLa cells; [CMPD] 25 µM) was 0.4205 Fraction DMSO Control and 0.7028 Fraction DMSO Control and 0.4452 Fraction DMSO Control and 0.4899 Fraction DMSO Control and 0.486 Fraction DMSO Control. For the same compound, the “[…] (Fraction DMSO Control)” value (HeLa cells; [CMPD] 25 µM) was 0.7319 Fraction DMSO Control, the “NORMALIZED DATA (Fraction DMSO Control)” value (HeLa cells; [CMPD] 50 µM) was 0.4043 Fraction DMSO Control and 0.3802 Fraction DMSO Control and 0.2112 Fraction DMSO Control and 0.1979 Fraction DMSO Control and the “[…] (Fraction DMSO Control)” value (HeLa cells; [CMPD] 50 µM) was 0.2642 Fraction DMSO Control and 0.1957 Fraction DMSO Control. The “NORMALIZED DATA (Fraction DMSO Control)” value (HeLa cells; [CMPD] 100 µM) was 0.2429 Fraction DMSO Control and 0.2248 Fraction DMSO Control and 0.2297 Fraction DMSO Control and the “[…] (Fraction DMSO Control)” value (HeLa cells; [CMPD] 100 µM) was 0.1038 Fraction DMSO Control and 0.3131 Fraction DMSO Control and 0.2661 Fraction DMSO Control.
